Experimental findings from US11358947B2, “Substituted 2-acylamino-cycloalkylthiophene-3-carboxylic acid arylamides as inhibitors of calcium-activated chloride channel TMEM16A” (THE REGENTS OF THE UNIVERSITY OF CALIFORNIA, priority 2017, dated 2022) are described below.

Values joined by “and” are separate entries in the source; they are usually repeats but may differ in a detail not shown here. Equal values may be shown once.

Data set [1] deals with T1, TMEM16A (Homo sapiens, UniProt Q5XXA6).
T1 sequence (Q5XXA6 1-986): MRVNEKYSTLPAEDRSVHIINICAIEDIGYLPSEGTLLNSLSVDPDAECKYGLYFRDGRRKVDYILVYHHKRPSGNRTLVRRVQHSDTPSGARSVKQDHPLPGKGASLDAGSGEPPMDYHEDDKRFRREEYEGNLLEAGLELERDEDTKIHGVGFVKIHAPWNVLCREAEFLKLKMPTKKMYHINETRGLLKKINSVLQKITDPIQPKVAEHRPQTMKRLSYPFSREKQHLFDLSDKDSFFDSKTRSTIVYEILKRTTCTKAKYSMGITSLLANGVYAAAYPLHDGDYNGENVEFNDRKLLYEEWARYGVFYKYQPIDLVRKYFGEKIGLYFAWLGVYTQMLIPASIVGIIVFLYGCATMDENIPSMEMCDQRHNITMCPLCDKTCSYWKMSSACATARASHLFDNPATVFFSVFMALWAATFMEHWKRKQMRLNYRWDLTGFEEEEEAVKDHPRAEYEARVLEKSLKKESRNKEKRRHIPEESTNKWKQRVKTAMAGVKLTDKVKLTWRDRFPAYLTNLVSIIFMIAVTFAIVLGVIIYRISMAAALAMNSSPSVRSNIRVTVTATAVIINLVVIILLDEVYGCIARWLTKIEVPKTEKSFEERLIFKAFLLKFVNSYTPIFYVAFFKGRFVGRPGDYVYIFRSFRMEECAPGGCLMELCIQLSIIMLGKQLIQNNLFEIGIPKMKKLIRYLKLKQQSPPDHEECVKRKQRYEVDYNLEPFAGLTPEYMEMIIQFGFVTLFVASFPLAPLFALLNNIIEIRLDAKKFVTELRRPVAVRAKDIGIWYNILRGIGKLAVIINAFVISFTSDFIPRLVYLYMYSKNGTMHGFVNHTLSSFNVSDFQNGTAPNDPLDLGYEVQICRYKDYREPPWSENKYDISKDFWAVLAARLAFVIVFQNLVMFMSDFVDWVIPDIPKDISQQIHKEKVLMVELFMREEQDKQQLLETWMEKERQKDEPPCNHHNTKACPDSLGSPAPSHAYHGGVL
The experiment in a line: TMEM16A functional fluorescence plate reader (FPR) assay, iodide influx in FRT cells with YFP. Format: cell-based. As to conditions: TMEM16A-expressing FRT cells, compound 10 min before iodide/ATP. As to the method:
A high-throughput screening assay was previously developed to identify small molecule inhibitors of TMEM16A. […] The assay involved addition of test compounds to the cells for 10 min in a physiological chloride-containing solution, followed by addition of an iodide solution containing ATP. TMEM16A-facilitated iodide influx was determined from the initial time course of decreasing YFP fluorescence.
2-Acylamino-cycloalkylthiophene-3-carboxylic acid arylamides 6aa-6bw were initially evaluated for inhibition of TMEM16A anion channel function using a cell-based functional plate reader assay as reported.
Yields (%) are of the isolated or purified products. IC50 (μM) for inhibition of TMEM16A anion conductance using a fluorescence plate reader (FPR) assay.
Cell lines and culture. Fischer Rat Thyroid (FRT) cells stably co-expressing TMEM16A, TMEM16B and human wild-type CFTR and the halide-sensitive yellow fluorescent protein (YFP)-H148Q were cultured as described. […] For plate reader assays, cells were plated in black 96-well microplates (Corning-Costar Corp., New York, N.Y.) at a density of 20,000 cells per well and assayed 24-48 hours after plating.
TMEM16A functional assay. TMEM16A functional plate-reader assay was done as previously described. […] Test compounds (0.5 μl in DMSO) were added to each well at specified concentration. […] The initial rate of I− influx following each of the solution additions was computed from fluorescence data by nonlinear regression. TMEM16B activity was assayed similarly as described using FRT cells co-expressing YFP and TMEM16B.

Data set [2] has as its target T1, TMEM16A. The data set is described as follows: Short-circuit current assay in TMEM16A-expressing FRT cells. Format: cell-based. The text has this: Measurements were done in FRT cells expressing TMEM16A.
(§1) Concentration-dependent inhibition of TMEM16A measured by short-circuit current assay; TMEM16B and non-TMEM16 anion conductance measured using a fluorescence plate reader assay using FRT and HT-29 cells respectively; cell viability measured in FRT null cells.
Short-circuit current measurement. Short-circuit current measurements were done as described. (See Piechowicz, K. A. et al., J Enzyme Inhib Med Chem 2016, 1-7.) Briefly, Snapwell inserts (Corning Costar, Corning, N.Y.) containing TMEM16A-expressing FRT cells were mounted in Ussing chambers (Physiological instruments, San Diego, Calif.). The hemichambers were filled with 5 ml of HCO3^− buffered solution (basolateral) and half-Cl^− solution (apical), and the basolateral membrane was permeabilized with 250 μg/ml amphotericin B. Solutions were bubbled with 95% O2/5% CO2 and maintained at 37° C., and short-circuit current was measured on a DVC-1000 voltage clamp (World Precision Instruments Inc., Sarasota, Fla.) using Ag/AgCl electrodes and 3 M KCl agar bridges.

The next data set has as its system FRT null cells. The experiment in a line: Cytotoxicity by Alamar Blue assay in FRT cells. Format: cell-based, rat. As to conditions: 8 h. The protocol: as §1
We further assayed the compound potency on endogenous non-TMEM16A. Ca^2+-activated Cl^− channel in HT-29 cells.
Cytotoxicity. FRT cells were cultured overnight in black 96-well Costar microplates and incubated with 5 μM test compounds for 8 h. Cytotoxicity was measured by Alamar Blue assay (Invitrogen, Carlsbad, Calif.) as per the manufacturer's instructions.
A general note: Alamar Blue is a resazurin reagent that responds to reducing activity.

A further data set relates to SW-480 cells. The experiment in a line: SW-480 cell proliferation, AlamarBlue after 72 h. Format: cell-based. As to conditions: Homo sapiens, SW480; AlamarBlue after 72 h of drug treatment; read-out: IC50 inhibition of SW-480 cell proliferation. The protocol:
Compounds according to the present disclosure (structures shown in FIG. 5B) were tested for their inhibitory effect on proliferation of SW-480 cell line.
SW-480 cells were cultured on plastic in Leibovitz L15 medium supplemented with 10% fetal bovine serum, 2 mM L-glutamine, 100 units/mL penicillin, and 100 μg/mL streptomycin. The cells were incubated at 37° C. without CO2.
SW-480 cells were plated into black 96-well microplates (Corning-Costar Corp., New York, N.Y.) at 10% seeding. The cells were treated with test compounds dissolved in DMSO in serial dilution while maintaining the final concentration of DMSO at 0.5%. Plated cells were then incubated for 72 h at 37° C. Cell proliferation was quantified using the AlamarBlue assay (Invitrogen, Carlsbad, Calif.) as per the manufacturer's instructions. Data was normalized against untreated control cells that were lysed for 10 minutes using Triton-X100 (0.1% in PBS).

With `Cc1ccccc1NC(=O)c1c(NC(=O)C(F)(F)F)sc2c1CCCCC2` [Compound 6aa, 2-(2,2,2-Trifluoro-acetylamino)-5,6,7,8-tetrahydro-4H-cyclohepta[b]thiophene-3-carboxylic acid o-tolylamide], the IC50 on TMEM16A [1] was found to be 0.42 µM; on TMEM16A [2], 0.26 µM; in the data set on SW-480 cells, 0.95 µM. In addition, in the data set on FRT null cells, the “Cellular survival % at 5 μM” value is 99%.

Take `Cc1ccccc1NC(=O)c1c(NC(=O)C(F)(F)Br)sc2c1CCCCC2` [Compound 6bm, 2-(2-Bromo-2,2-difluoro-acetylamino)-5,6,7,8-tetrahydro-4H-cyclohepta[b]thiophene-3-carboxylic acid o-tolylamide]: the IC50 was 0.08 to 0.18 µM and 0.083 µM on TMEM16A [1]; 0.03 µM against TMEM16A [2]; 7 µM with SW-480 cells. Moreover, the “Cellular survival % at 5 μM” value in the data set on FRT null cells is listed as 97%.
